From patent publication US9452986B2, “6-heteroaryloxy- or 6-aryloxy-quinoline-2-carboxamides and method of use” (AbbVie Inc., priority 2014, dated 2016)

These compounds were tested against recombinant human Nav1.7 (Homo sapiens (Human), UniProt Q15858) (assay: FRET-based membrane potential assay, recombinant human sodium channel Nav1.7). Conditions: HEK293 cells stably expressing recombinant human Nav1.7; veratridine + scorpion venom depolarization; read-out: FRET-Membrane Potential Nav1.7 IC50.
Sequence of recombinant human Nav1.7 (Q15858 whole entry): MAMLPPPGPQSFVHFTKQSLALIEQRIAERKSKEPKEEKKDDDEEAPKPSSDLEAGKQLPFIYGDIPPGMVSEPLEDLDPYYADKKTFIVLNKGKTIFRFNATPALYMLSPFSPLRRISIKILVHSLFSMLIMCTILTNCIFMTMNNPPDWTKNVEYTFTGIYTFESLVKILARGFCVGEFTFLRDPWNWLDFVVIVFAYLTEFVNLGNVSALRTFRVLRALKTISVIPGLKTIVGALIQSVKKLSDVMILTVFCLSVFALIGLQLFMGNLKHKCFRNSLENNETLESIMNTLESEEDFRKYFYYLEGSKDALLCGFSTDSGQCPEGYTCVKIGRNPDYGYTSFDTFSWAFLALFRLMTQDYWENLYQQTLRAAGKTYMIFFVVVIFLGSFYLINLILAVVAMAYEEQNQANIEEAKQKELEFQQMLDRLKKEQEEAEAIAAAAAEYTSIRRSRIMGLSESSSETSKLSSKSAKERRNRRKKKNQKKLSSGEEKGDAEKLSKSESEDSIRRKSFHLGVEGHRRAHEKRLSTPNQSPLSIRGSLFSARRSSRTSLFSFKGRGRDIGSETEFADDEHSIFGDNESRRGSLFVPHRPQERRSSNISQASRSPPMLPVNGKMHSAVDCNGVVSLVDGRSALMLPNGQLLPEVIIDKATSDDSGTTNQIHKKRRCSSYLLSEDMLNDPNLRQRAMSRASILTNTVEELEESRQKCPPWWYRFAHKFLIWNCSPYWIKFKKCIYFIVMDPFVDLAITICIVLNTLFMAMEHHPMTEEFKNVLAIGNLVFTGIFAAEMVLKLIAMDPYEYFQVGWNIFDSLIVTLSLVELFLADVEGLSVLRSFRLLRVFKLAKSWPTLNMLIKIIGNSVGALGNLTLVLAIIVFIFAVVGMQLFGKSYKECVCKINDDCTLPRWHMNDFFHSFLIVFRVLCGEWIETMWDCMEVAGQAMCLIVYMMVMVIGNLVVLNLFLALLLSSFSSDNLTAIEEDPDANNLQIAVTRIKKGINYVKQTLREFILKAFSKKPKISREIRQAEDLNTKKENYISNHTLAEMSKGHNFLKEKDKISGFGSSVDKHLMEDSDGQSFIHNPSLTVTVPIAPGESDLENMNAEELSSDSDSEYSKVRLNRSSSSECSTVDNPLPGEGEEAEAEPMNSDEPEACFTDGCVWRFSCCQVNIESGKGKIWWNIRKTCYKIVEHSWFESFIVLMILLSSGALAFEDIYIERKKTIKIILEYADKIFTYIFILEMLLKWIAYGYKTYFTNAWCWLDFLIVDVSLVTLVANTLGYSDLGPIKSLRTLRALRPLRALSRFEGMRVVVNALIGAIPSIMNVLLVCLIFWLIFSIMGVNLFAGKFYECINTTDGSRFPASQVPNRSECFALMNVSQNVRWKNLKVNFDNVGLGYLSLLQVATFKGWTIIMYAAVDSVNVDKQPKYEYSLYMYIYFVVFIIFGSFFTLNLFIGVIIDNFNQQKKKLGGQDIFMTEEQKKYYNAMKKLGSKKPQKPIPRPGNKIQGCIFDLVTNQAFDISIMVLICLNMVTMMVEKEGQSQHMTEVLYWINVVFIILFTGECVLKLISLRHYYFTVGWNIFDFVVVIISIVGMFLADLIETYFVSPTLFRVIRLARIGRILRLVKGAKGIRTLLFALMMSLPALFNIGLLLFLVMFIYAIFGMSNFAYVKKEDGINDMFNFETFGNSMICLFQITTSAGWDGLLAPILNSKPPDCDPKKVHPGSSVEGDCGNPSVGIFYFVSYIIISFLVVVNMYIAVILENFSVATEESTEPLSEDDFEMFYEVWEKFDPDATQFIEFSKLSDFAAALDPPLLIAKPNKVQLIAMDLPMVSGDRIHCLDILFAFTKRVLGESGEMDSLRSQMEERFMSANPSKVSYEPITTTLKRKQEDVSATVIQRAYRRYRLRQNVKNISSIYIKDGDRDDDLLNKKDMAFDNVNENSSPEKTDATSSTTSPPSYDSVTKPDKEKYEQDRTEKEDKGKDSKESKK
Format: cell-based
Method: FRET-Based Membrane Potential Assays.
Recombinant, Human Sodium Channel, Nav1.7.
On the day of the assay, medium was removed by aspiration, and cells were washed with assay buffer [HBSS (Invitrogen, Carlsbad, Calif.) containing 20 mM HEPES (Invitrogen, Carlsbad, Calif.)]. […] Cells were incubated for 40 minutes at room temperature in the dark. […] The cells were incubated for 90 minutes at room temperature in the dark. Fluorescence readings were made using a FLIPR®^TETRA (Molecular Devices, Sunnyvale Calif.) equipped with voltage-sensor probe optics. At the start of each experiment the optimal (EC80) concentration of depolarizing agent (veratridine) was determined by testing a dilution curve of assay buffer containing veratridine (Sigma-Aldrich, St. Louis, Mo.) and 1 mg/mL scorpion venom (SVqq, from Leiurus quinquestriatus; Sigma-Aldrich, St. Louis, Mo.). […] Test compounds in the daughter plate were diluted to (˜3×) solutions in assay buffer immediately before assaying. Using the FLIPR®^TETRA, 20 μL of the (3×) compound solutions were first added to the cells, then 20 μL of depolarizing solution (3×EC80 veratridine+SVqq) were added 3 minutes later to activate the channel. […] IC50 values were calculated from curve fits of the ratio data using a four-parameter logistic Hill equation (Accelrys Assay Explorer 3.3 Client, Accelrys, San Diego, Calif.) with percent inhibition plotted against compound concentration.

| Structure (SMILES) | IC50 |
| --- | --- |
| CC(C)[C@H](CO)NC(=O)c1ccc2cc(Oc3ccc(C#N)cc3)ccc2n1 [Example 91, 6-(4-cyanophenoxy)-N-[(2R)-1-hydroxy-3-methylbutan-2-yl]quinoline-2-carboxamide] | 3.25 µM |
| N#Cc1ccc(Oc2ccc3nc(C(=O)NCc4cccs4)ccc3c2)cc1 [Example 92, 6-(4-cyanophenoxy)-N-(2-thienylmethyl)quinoline-2-carboxamide] | 9.83 µM |
| N#Cc1ccc(Oc2ccc3nc(C(=O)NCCc4cccs4)ccc3c2)cc1 [Example 93, 6-(4-cyanophenoxy)-N-[2-(2-thienyl)ethyl]quinoline-2-carboxamide] | 1.55 µM |
| N#Cc1ccc(Oc2ccc3nc(C(=O)NCc4ccco4)ccc3c2)cc1 [Example 94, 6-(4-cyanophenoxy)-N-(2-furylmethyl)quinoline-2-carboxamide] | 5.25 µM |
| CC(C)C(CO)NC(=O)c1ccc2cc(Oc3ccc(C#N)cc3)ccc2n1 (centres unmarked) [Example 95, 6-(4-cyanophenoxy)-N-(1-hydroxy-3-methylbutan-2-yl)quinoline-2-carboxamide] | 4.87 µM |
| N#Cc1ccc(Oc2ccc3nc(C(=O)NCCN4CCCC4)ccc3c2)cc1 [Example 96, 6-(4-cyanophenoxy)-N-[2-(pyrrolidin-1-yl)ethyl]quinoline-2-carboxamide] | 0.329 µM |
| N#Cc1ccc(Oc2ccc3nc(C(=O)NCc4ccncc4)ccc3c2)cc1 [Example 98, 6-(4-cyanophenoxy)-N-(pyridin-4-ylmethyl)quinoline-2-carboxamide] | 0.885 µM |
| Cc1ccc(CNC(=O)c2ccc3cc(Oc4ccc(C#N)cc4)ccc3n2)o1 [Example 99, 6-(4-cyanophenoxy)-N-[(5-methyl-2-furyl)methyl]quinoline-2-carboxamide] | 5.05 µM |
| N#Cc1ccc(Oc2ccc3nc(C(=O)NCCCN4CCCCC4)ccc3c2)cc1 [Example 100, 6-(4-cyanophenoxy)-N-[3-(piperidin-1-yl)propyl]quinoline-2-carboxamide] | 0.221 µM |
| N#Cc1ccc(Oc2ccc3nc(C(=O)NCc4cccc(OC(F)(F)F)c4)ccc3c2)cc1 [Example 102, 6-(4-cyanophenoxy)-N-[3-(trifluoromethoxy)benzyl]quinoline-2-carboxamide] | > 20 µM |
| Cc1ccc(CNC(=O)c2ccc3cc(Oc4ccc(C#N)cc4)ccc3n2)cc1 [Example 103, 6-(4-cyanophenoxy)-N-(4-methylbenzyl)quinoline-2-carboxamide] | > 20 µM |
| N#Cc1ccc(Oc2ccc3nc(C(=O)NCc4ccc5c(c4)OCO5)ccc3c2)cc1 [Example 104, N-(1,3-benzodioxol-5-ylmethyl)-6-(4-cyanophenoxy)quinoline-2-carboxamide] | > 20 µM |
| COc1cccc(CNC(=O)c2ccc3cc(Oc4ccc(C#N)cc4)ccc3n2)c1OC [Example 105, 6-(4-cyanophenoxy)-N-(2,3-dimethoxybenzyl)quinoline-2-carboxamide] | 7.25 µM |
| N#Cc1ccc(Oc2ccc3nc(C(=O)N4CCCCCC4)ccc3c2)cc1 [Example 106, 4-{[2-(azepan-1-ylcarbonyl)quinolin-6-yl]oxy}benzonitrile] | 2.42 µM |
| CCCN(CCOC)C(=O)c1ccc2cc(Oc3ccc(C#N)cc3)ccc2n1 [Example 107, 6-(4-cyanophenoxy)-N-(2-methoxyethyl)-N-propylquinoline-2-carboxamide] | 4.12 µM |
| CCOCCNC(=O)c1ccc2cc(Oc3ccc(C#N)cc3)ccc2n1 [Example 108, 6-(4-cyanophenoxy)-N-(2-ethoxyethyl)quinoline-2-carboxamide] | 2.41 µM |
| N#Cc1ccc(Oc2ccc3nc(C(=O)NC4CCN(Cc5ccccc5)C4)ccc3c2)cc1 (centres unmarked) [Example 109, N-(1-benzylpyrrolidin-3-yl)-6-(4-cyanophenoxy)quinoline-2-carboxamide] | 0.66 µM |
| N#Cc1ccc(Oc2ccc3nc(C(=O)N4CCCC(C(F)(F)F)C4)ccc3c2)cc1 (centres unmarked) [Example 110, 4-[(2-{[3-(trifluoromethyl)piperidin-1-yl]carbonyl}quinolin-6-yl)oxy]benzonitrile] | 1.96 µM |
| N#Cc1ccc(Oc2ccc3nc(C(=O)N[C@@H]4CCOC4=O)ccc3c2)cc1 [Example 113, 6-(4-cyanophenoxy)-N-[(3R)-2-oxotetrahydrofuran-3-yl]quinoline-2-carboxamide] | 0.741 µM |
| CS(=O)(=O)NC(=O)c1ccc2cc(Oc3ccc(C#N)cc3)ccc2n1 [Example 115, 6-(4-cyanophenoxy)-N-(methylsulfonyl)quinoline-2-carboxamide] | 11.2 µM |
| N#Cc1ccc(Oc2ccc3nc(C(=O)NC4CCCOC4)ccc3c2)cc1 (centres unmarked) [Example 116, 6-(4-cyanophenoxy)-N-(tetrahydro-2H-pyran-3-yl)quinoline-2-carboxamide] | 1.03 µM |
| CC(C)(O)CNC(=O)c1ccc2cc(Oc3ccc(C#N)cc3)ccc2n1 [Example 122, 6-(4-cyanophenoxy)-N-(2-hydroxy-2-methylpropyl)quinoline-2-carboxamide] | 2.49 µM |
| N#Cc1ccc(Oc2ccc3nc(C(=O)N[C@H]4CC[C@H](O)CC4)ccc3c2)cc1 [Example 125, 6-(4-cyanophenoxy)-N-(trans-4-hydroxycyclohexyl)quinoline-2-carboxamide] | 3.46 µM |
| N#Cc1ccc(Oc2ccc3nc(C(=O)NC(CO)CO)ccc3c2)cc1 [Example 126, 6-(4-cyanophenoxy)-N-(1,3-dihydroxypropan-2-yl)quinoline-2-carboxamide] | 8.76 µM |
| N#Cc1ccc(Oc2ccc3nc(C(=O)N[C@H]4CCC[C@@H](O)C4)ccc3c2)cc1 [Example 129, 6-(4-cyanophenoxy)-N-[(1S,3R)-3-hydroxycyclohexyl]quinoline-2-carboxamide] | 2.58 µM |
| N#Cc1ccc(Oc2ccc3nc(C(=O)N[C@H]4CC[C@@H](O)C4)ccc3c2)cc1 [Example 130, 6-(4-cyanophenoxy)-N-[(1S,3R)-3-hydroxycyclopentyl]quinoline-2-carboxamide] | 2.05 µM |

Same assay, conditions: read-out: FRET-Membrane Potential Nav1.7 IC50

| Structure (SMILES) | IC50 |
| --- | --- |
| N#Cc1ccc(Oc2ccc3nc(C(=O)NCc4ccccn4)ccc3c2)cc1 [Example 97, 6-(4-cyanophenoxy)-N-(pyridin-2-ylmethyl)quinoline-2-carboxamide] | 0.842 µM |
| N#Cc1ccc(Oc2ccc3nc(C(=O)Nc4ccc(Oc5ccccc5)cc4)ccc3c2)cc1 [Example 101, 6-(4-cyanophenoxy)-N-(4-phenoxyphenyl)quinoline-2-carboxamide] | > 20 µM |
| N#Cc1ccc(Oc2ccc3nc(C(=O)N4CCc5ccccc54)ccc3c2)cc1 [Example 111, 4-{[2-(2,3-dihydro-1H-indol-1-ylcarbonyl)quinolin-6-yl]oxy}benzonitrile] | > 20 µM |
| N#Cc1ccc(Oc2ccc3nc(C(=O)N4CCNCC4)ccc3c2)cc1 [Example 112, 4-{[2-(piperazin-1-ylcarbonyl)quinolin-6-yl]oxy}benzonitrile] | 1.48 µM |
| N#Cc1ccc(Oc2ccc3nc(C(=O)NC4CCOC4)ccc3c2)cc1 (centres unmarked) [Example 114, 6-(4-cyanophenoxy)-N-(tetrahydrofuran-3-yl)quinoline-2-carboxamide] | 0.56 µM |
| N#Cc1ccc(Oc2ccc3nc(C(=O)N[C@@H]4CCOC4)ccc3c2)cc1 [Example 117, 6-(4-cyanophenoxy)-N-[(3R)-tetrahydrofuran-3-yl]quinoline-2-carboxamide] | 2.23 µM |
| N#Cc1ccc(Oc2ccc3nc(C(=O)N[C@H]4CCOC4)ccc3c2)cc1 [Example 118, 6-(4-cyanophenoxy)-N-[(3S)-tetrahydrofuran-3-yl]quinoline-2-carboxamide] | 2.27 µM |
| N#Cc1ccc(Oc2ccc3nc(C(=O)N[C@@H]4CCCC[C@@H]4O)ccc3c2)cc1 [Example 119, 6-(4-cyanophenoxy)-N-[(1R,2S)-2-hydroxycyclohexyl]quinoline-2-carboxamide] | 0.819 µM |
| N#Cc1ccc(Oc2ccc3nc(C(=O)N[C@H]4CCCC[C@@H]4O)ccc3c2)cc1 [Example 120, 6-(4-cyanophenoxy)-N-[(1S,2S)-2-hydroxycyclohexyl]quinoline-2-carboxamide] | 2.04 µM |
| N#Cc1ccc(Oc2ccc3nc(C(=O)N[C@H]4CCC[C@@H]4O)ccc3c2)cc1 [Example 121, 6-(4-cyanophenoxy)-N-[(1S,2S)-2-hydroxycyclopentyl]quinoline-2-carboxamide] | 1.66 µM |
| N#Cc1ccc(Oc2ccc3nc(C(=O)NC4(CO)CC4)ccc3c2)cc1 [Example 123, 6-(4-cyanophenoxy)-N-[1-(hydroxymethyl)cyclopropyl]quinoline-2-carboxamide] | 6.55 µM |
| CC(C)(CO)NC(=O)c1ccc2cc(Oc3ccc(C#N)cc3)ccc2n1 [Example 124, 6-(4-cyanophenoxy)-N-(1-hydroxy-2-methylpropan-2-yl)quinoline-2-carboxamide] | 2.14 µM |
| CC(CO)NC(=O)c1ccc2cc(Oc3ccc(C#N)cc3)ccc2n1 (centres unmarked) [Example 127, 6-(4-cyanophenoxy)-N-(1-hydroxypropan-2-yl)quinoline-2-carboxamide] | 4.07 µM |
| CC(O)CNC(=O)c1ccc2cc(Oc3ccc(C#N)cc3)ccc2n1 (centres unmarked) [Example 128, 6-(4-cyanophenoxy)-N-(2-hydroxypropyl)quinoline-2-carboxamide] | 2.85 µM |
| N#Cc1ccc(Oc2ccc3nc(C(=O)N[C@@H]4CCC[C@@H]4O)ccc3c2)cc1 [Example 131, 6-(4-cyanophenoxy)-N-[(1R,2S)-2-hydroxycyclopentyl]quinoline-2-carboxamide] | 1.15 µM |
